Values belong to the compound of their own block, whether it stands above or below them.
What was measured:
2E9 MAb [1] = assay: Indirect competitive ELISA measuring equilibrium association constant and association/dissociation rates of MAb-hapten complexes; assay type: binding, mouse; conditions: for KA times higher than KA measured for the 4-OHE2-1-N3Ade adduct: comparator 4-OHE2-1-N3Ade; for KA higher by a factor than that obtained for NAcCys: comparator NAcCys; for Association constant, KA / Association rate, kon / Dissociation rate, koff: in the presence of 2E9 MAb, indirect competitive ELISA; for Association constant, KA: equilibrium; for 1/koff: dissociation time; for KA times smaller than the KA obtained for 4-OHE1-2-NAcCys: comparator 4-OHE1-2-NAcCys
Protocol: The equilibrium constant and the kinetic off- and on-rates for the analyte and the reporter molecule of interest must be known. The equilibrium association constants (KA) and association (kon)/dissociation (koff) rates for 4-OHE2-2-NAcCys and 4-OHE2-2-NAcCys-SAMSA conjugates are given in Table I, which also provides information on other closely related analytes, such as 4-OHE2, NAcCys, and 4-OHE2-1-N3Ade adduct. All values listed in Table I were determined using an indirect competitive ELISA. The value of KA for 4-OHE2-2-NAcCys-SAMSA was confirmed by an equilibrium dialysis method.
An ELISA was used to measure the association/dissociation rate constants of MAb-hapten (i.e., MAb-4-OHE1-2-NAcCys) and/or association/dissociation rate constants of related analytes. The MAb and suitable hapten(s) were mixed in solution to initiate the equilibrium reaction. At different time intervals, the amount of the free MAb in the reaction mixture was determined by an indirect ELISA. The association rate constants for 4-OHE1-2-NAcCys, 4-OHE1, NAcCys, and 4-OHE1-1-N3Ade were estimated by nonlinear regression against an equation introduced from the derivation of the mass balance of MAb-antigen/related analyte interaction (Zhuang et al., J Biosci. Bioeng. 92, 330-336 (2001); Foote et al., Proc. Natl. Acad. Sci. USA 92, 1254-1256 (1995); Goldbaum et al., J Immunol. 162, 6040-6045 (1999); Northrup et al., Proc. Natl. Acad. Sci. USA 89, 3338-3342 (1992)).
To determine the bound fraction of the antibody by ELISA, 3 rows and 8 columns of the microtiter plate were incubated with sufficient concentration of antigen to saturate the wells. After washing the plate with PBS 3 times, 4 rows of the plate including 3 rows coated with the antigen were blocked with 1% non-fat dried milk, 0.01% Triton-X100 in PBS for 3 hrs. Then the plate was washed with PBS with Triton-X100 (0.01%) 3 times. Equal volumes (160 μL) of the antigen (or related analyte) and PBS were mixed, and the mixture was put into the first well of the row that was blocked but not coated with the antigen (non-coated row).
The average absorbance of this column (Ab) measured in the last step of the ELISA corresponds to the blank. Equal volumes (160 μL) of the antibody solution and PBS were mixed, and the mixture was put into the last (8th) well of the non-coated row. The average absorbance of this column (Ao) corresponds to the total concentration of the antibody. Equal volumes of the antibody solution and antigen (or related analyte) solution were mixed quickly, and the mixture was immediately put into the second well of the non-coated row. At appropriate time intervals (after 10, 20, 23, 26 and 28 min), a new mixture of the antibody and hapten (or related analyte) solution were mixed quickly, immediately put into the wells of the non-coated row from the […]. The average absorbance of these columns (At) corresponds to the concentration of the free antibody at t=30, 20, 10, 7, 4 and 2 min for the […], respectively. Two min after the 7th well was filled with the mixture, using an eight-channel Pipetman, the mixtures on the row were quickly dispensed into the 3 rows that were coated with the antigen (or related analyte, 50 μL each). After 1 min the mixture was discarded and the plate was washed with PBS with Triton-X100 (0.01%) 3 times. The secondary antibody solution (HRP-conjugated) was added to the plate (50 μL), and the plate was incubated at 37° C. for 1 h. After washing with PBS and Triton-X100 (0.01%) 3 times, the substrate was added to the plate (50 μL). After incubation for 10 min at room temperature, the absorbance at 405 nm was measured.
Association constants KA for 4-OHE1 and NAcCys were also determined and are 2.5·10^5 and 2.1·10^6 M^−1, respectively. […] When the time required for the equilibrium reaction between the antigen and the antibody is shorter, one can detect or quantify the hapten faster. […]

2E9 MAb [2] = assay: Competitive ELISA for 4-OHE1-2-NAcCys: inhibition of 2E9 MAb binding to immobilized antigen; set-up: species or system mouse; conditions: for IC50: wells coated with OA-4-OHE1(E2)-2-NAcCys-16a,β-MCC, regression analysis, read-out: I50 (quantity producing 50% inhibition of MAb binding in the ELISA)
Protocol: FIG. 5 is a diagram depicting inhibition profiles obtained for 4-OHE1-2-NAcCys (curve 1); NAcCys (curve 2), 4-OHE1(E2) (curve 3), and 4-OHE1-1-N3Ade (curve 4) using the 2E9 MAb in the competitive ELISA assay. Competitor-mediated reduction of MAb binding was expressed as % inhibition vs. untreated MAb and then plotted as a function of log quantity of competitor per well of the ELISA plate.
Wells were coated with OA-40HE1(E2)-2-NAcCys-16a,β-MCC, 500 ng/mL, 50 μL/well overnight, and blocked with 1% non-fat dried milk, 0.01% Triton-X100 in PBS for 2 h at 37° C. Competition curves were generated as described below. MAb and competitor molecules 4-OHE1(E2)-2-NAcCys (1), NAcCys (2), 4-OHE1(E2) (3), and 4-OHE1(E2)-1-N3Ade (4) were added to the wells at the same time and allowed to react with immobilized antigen for one hour before secondary antibody was added. The plates were washed with PBS with Triton-X100 (0.01%). Secondary antibody labeled with horseradish peroxidase (HRP) was used according to manufacturer's (BRL, Inc.) recommendations and incubated at 37° C. for 1 h. Plates were washed again, 2,2′-azino-bis(3-ethylbenzthiazoline-6-sulfonic acid) (ABTS) was added, and the plates were read at 405 nm on a BioRad-EL800 plate reader. The specificity of the 2E9 MAb raised against 4-OHE1(E2)-2-NAcCys was confirmed, and cross-reactivity to a number of related compounds was established.
The results are shown in FIG. 5, where the competitor-mediated reduction of MAb binding is expressed as % inhibition versus untreated MAb and plotted as a function of the concentration of competitor in the wells of the ELISA plate. Inhibition curves were developed for several analytes of interest; the I50's (quantity producing 50% inhibition of MAb binding in the ELISA) of these analytes were determined by regression analysis. […] For example, the I50 of 4-OHE-1-N3Ade (I50=1.5·10^−5M) was about 2700 times higher than the I50 of the 4-OHE1-2-NAcCys (I50=5.6·10^−9M).

[3] = test system: MAb against 4-OHE2-1-N3Ade; assay: Association constant of the MAb developed against 4-OHE2-1-N3Ade; assay type: binding

Compound: 4-OHE1(E2)-2-NAcCys
KA times higher than KA measured for the 4-OHE2-1-N3Ade adduct (2E9 MAb [1]; 2E9 MAb): about 2,700
KA higher by a factor than that obtained for NAcCys (2E9 MAb [1]; 2E9 MAb): 100
Association constant, KA (2E9 MAb [1]): 1.8e+08 M⁻¹

Compound: 4-OHE2-2-NAcCys-SAMSA [4-OHE2-NAcCys-SAMSA]
1/koff (2E9 MAb [1]; 2E9 MAb): 185 s
Association rate, kon (2E9 MAb [1]): 270000 M⁻¹ s⁻¹
Dissociation rate, koff (2E9 MAb [1]): 0.0054 s⁻¹
Association constant, KA (2E9 MAb [1]): 5e+07 M⁻¹

I50 times higher than the I50 of 4-OHE1-2-NAcCys (2E9 MAb [2]; comparator 4-OHE1-2-NAcCys): about 2700
IC50 (2E9 MAb [2]): 15 µM
Compound: C[C@]12CC[C@@H]3c4c(-n5cnc(=N)c6[nH]cnc65)cc(O)c(O)c4CC[C@H]3[C@@H]1CCC2=O [4-OHE1-1-N3Ade]
KA times smaller than the KA obtained for 4-OHE1-2-NAcCys (2E9 MAb [1]; 2E9 MAb): 2700
Association constant, KA (2E9 MAb [1]; listed as 4-OHE1-N3Ade): 67000 M⁻¹

Compound: CC(=O)NC(CSc1cc2c(c(O)c1O)CCC1C2CCC2(C)C(=O)CCC12)C(=O)O (stereo not drawn) [4-OHE1-2-NAcCys]
IC50 (2E9 MAb [2]): 0.0056 µM

Compound: C[C@]12CC[C@@H]3c4ccc(O)c(O)c4CC[C@H]3[C@@H]1CCC2=O [4-OHE1]
KA times smaller than the KA obtained for 4-OHE1-2-NAcCys (2E9 MAb [1]; 2E9 MAb): about 720
Association constant, KA (2E9 MAb [1]): 250000 M⁻¹

Compound: C[C@]12CC[C@@H]3c4c(-n5cnc(=N)c6[nH]cnc65)cc(O)c(O)c4CC[C@H]3[C@@H]1CC[C@@H]2O [4-OHE2-1-N3Ade]
1/koff (2E9 MAb [1]; 2E9 MAb): 10 s
Association rate, kon (2E9 MAb [1]): 6500 M⁻¹ s⁻¹
Dissociation rate, koff (2E9 MAb [1]): 0.097 s⁻¹
Association constant, KA (2E9 MAb [1]): 67000 M⁻¹
KA [3]: 2e+08 M⁻¹

Compound: CC(=O)N[C@@H](CSc1cc2c(c(O)c1O)CC[C@@H]1[C@@H]2CC[C@]2(C)[C@@H](O)CC[C@@H]12)C(=O)O [4-OHE2-NAcCys, 4-OHE2-2-NAcCys]
dissociation time 1/koff (2E9 MAb [1]; 2E9 MAb): ~6.5 min
KA times higher than KA measured for the 4-OHE2-1-N3Ade adduct (2E9 MAb [1]; 2E9 MAb): about 2,700
KA higher by a factor than that obtained for NAcCys (2E9 MAb [1]; 2E9 MAb): 100
1/koff (2E9 MAb [1]; 2E9 MAb): 391 s
Association rate, kon (2E9 MAb [1]): 460000 M⁻¹ s⁻¹
Dissociation rate, koff (2E9 MAb [1]): 0.0026 s⁻¹
Association constant, KA (2E9 MAb [1]): 1.8e+08 M⁻¹
Association constant, KA (2E9 MAb [1]; listed as 4-OHE2-2-NAcCys): 1.8e+08 M⁻¹

Compound: C[C@]12CC[C@@H]3c4ccc(O)c(O)c4CC[C@H]3[C@@H]1CC[C@@H]2O [4-OHE2]
1/koff (2E9 MAb [1]; 2E9 MAb): 17 s
Association rate, kon (2E9 MAb [1]): 15000 M⁻¹ s⁻¹
Dissociation rate, koff (2E9 MAb [1]): 0.062 s⁻¹
Association constant, KA (2E9 MAb [1]): 250000 M⁻¹

Compound: CC(=O)N[C@@H](CS)C(=O)O [NAcCys, N-acetylcysteine]
KA times smaller than the KA obtained for 4-OHE1-2-NAcCys (2E9 MAb [1]; 2E9 MAb): ~86
1/koff (2E9 MAb [1]; 2E9 MAb): 27 s
Association rate, kon (2E9 MAb [1]): 77000 M⁻¹ s⁻¹
Dissociation rate, koff (2E9 MAb [1]): 0.037 s⁻¹
Association constant, KA (2E9 MAb [1]): 2.1e+06 M⁻¹
